Experimental data as given in PubChem BioAssay (NCI).
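Growth conditions: 96-well plates. Treatment: test compound, 48 hours, 5 concentrations. Analysis: linear interpolation between bracketing concentrations; unreached endpoints set to highest concentration. At the GI50, growth is halved. TGI: concentration producing complete growth inhibition.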

Key:
Assay in all cases: growth of human tumour cells (NCI), 48 h
[1] = tested on: KM12 colon
[2] = tested on: LOX IMVI melanoma
[3] = tested on: HCT-116 colon
[4] = tested on: RPMI-8226 leukemia
[5] = tested on: HOP-62 NSCLC
[6] = tested on: IGROV1 ovarian
[7] = tested on: 786-0 renal
[8] = tested on: OVCAR-8 ovarian
[9] = tested on: HOP-92 NSCLC
[10] = tested on: BT-549 breast

Structure (SMILES): O=NN(CCCl)C(=O)NC1CCC(CC(=O)O)CC1 (stereo not given)
- TGI [1]: > 100 µM
- TGI [2]: > 100 µM
- TGI [3]: > 100 µM
- TGI [4]: > 100 µM
- TGI [5]: > 100 µM
- TGI [6]: > 100 µM
- TGI [7]: > 100 µM
- TGI [8]: > 100 µM
- TGI [9]: > 100 µM

Structure (SMILES): O=C(CCCC(=O)Nc1ccc(Cl)cc1Cl)CC(=O)c1ccc2ccccc2c1
- TGI [1]: > 100 µM
- TGI [2]: > 100 µM
- TGI [3]: > 100 µM
- TGI [5]: > 100 µM
- TGI [6]: > 100 µM
- TGI [7]: > 100 µM
- TGI [8]: > 100 µM
- TGI [9]: > 100 µM

Structure (SMILES): N#Cc1ccc(Sc2nc3ccccc3[nH]2)cc1
- TGI [1]: > 100 µM
- TGI [2]: > 100 µM
- TGI [5]: > 100 µM
- TGI [6]: > 100 µM
- TGI [7]: > 100 µM
- TGI [8]: > 100 µM
- TGI [9]: > 100 µM

Structure (SMILES): OC(c1ccccc1Br)(c1ccccc1Br)C(F)(F)F
- TGI [1]: 30.9 µM
- TGI [2]: 40.2 µM
- TGI [3]: 39.4 µM
- TGI [5]: 52.8 µM
- TGI [6]: > 100 µM
- TGI [7]: 35.5 µM
- TGI [8]: > 100 µM

Structure (SMILES): CC(=O)[CH-]C(=O)c1ccccc1.[C-]#[O+].[C-]#[O+].[Ir]
- GI50 [1]: > 10 µM
- TGI [1]: > 10 µM
- GI50 [2]: > 100 µM
- TGI [2]: > 100 µM
- GI50 [4]: > 10 µM
- TGI [4]: > 10 µM
- GI50 [6]: > 100 µM
- TGI [6]: > 100 µM
- GI50 [7]: > 100 µM
- TGI [7]: > 100 µM
- GI50 [8]: > 100 µM
- TGI [8]: > 100 µM

Structure (SMILES): COCCN(CCOC)c1nc(-c2ccccc2)nc2ccccc12
- GI50 [10]: 22.5 µM
- TGI [10]: 47.7 µM
- GI50 [1]: 18.6 µM
- TGI [1]: 47.2 µM
- GI50 [2]: 34.7 µM
- TGI [2]: > 100 µM
- GI50 [3]: 24.5 µM
- TGI [3]: > 100 µM
- GI50 [4]: 7.03 µM
- TGI [4]: 36 µM
- GI50 [5]: 22.4 µM
- TGI [5]: 64.3 µM
- GI50 [6]: 25.2 µM
- TGI [6]: 93.6 µM
- GI50 [7]: 25.6 µM
- TGI [7]: > 100 µM
- GI50 [8]: 33.7 µM
- TGI [8]: > 100 µM

Structure (SMILES): COc1ccccc1Oc1nccc(-c2c(-c3ccc(F)cc3)ncn2C2CCNCC2)n1
- GI50 [10]: > 23.6 µM
- TGI [10]: > 25 µM
- GI50 [1]: > 25 µM
- TGI [1]: > 25 µM
- GI50 [2]: 17.6 µM
- TGI [2]: > 25 µM
- GI50 [3]: 19.6 µM
- TGI [3]: > 25 µM
- GI50 [4]: > 19.3 µM
- TGI [4]: > 25 µM
- GI50 [5]: > 25 µM
- TGI [5]: > 25 µM
- GI50 [6]: > 22.6 µM
- TGI [6]: > 25 µM
- GI50 [7]: > 25 µM
- TGI [7]: > 25 µM
- GI50 [8]: > 25 µM
- TGI [8]: > 25 µM

Structure (SMILES): C=C(CN1CCc2[nH]c3ccc(F)cc3c2C1)c1ccc(C(=O)Nc2ccccc2N)cc1
- GI50 [10]: 1.5 µM
- TGI [10]: 5.67 µM
- GI50 [1]: 0.524 µM
- TGI [1]: 2.94 µM
- GI50 [3]: 0.367 µM
- TGI [3]: 5.04 µM
- GI50 [4]: 2.48 µM
- TGI [4]: > 100 µM
- GI50 [5]: 0.605 µM
- TGI [5]: 8.38 µM
- GI50 [6]: 0.41 µM
- TGI [6]: 3.53 µM
- GI50 [7]: 0.56 µM
- TGI [7]: 3.59 µM
- GI50 [8]: 0.772 µM
- TGI [8]: 3.82 µM
- GI50 [9]: 10.7 µM
- TGI [9]: 36.7 µM

Structure (SMILES): CC(=O)Oc1c(C(=O)[O-])cc(C(C)C)cc1C(C)C.CC(=O)Oc1c(C(=O)[O-])cc(C(C)C)cc1C(C)C.CC(=O)Oc1c(C(=O)[O-])cc(C(C)C)cc1C(C)C.CC(=O)Oc1c(C(=O)[O-])cc(C(C)C)cc1C(C)C.[Cu+2].[Cu+2]
- GI50 [10]: 16.7 µM
- TGI [10]: 38.5 µM
- GI50 [1]: 19.1 µM
- TGI [1]: > 100 µM
- GI50 [2]: 2.74 µM
- TGI [2]: 25.8 µM
- GI50 [3]: 28.7 µM
- TGI [3]: > 100 µM
- GI50 [5]: 25 µM
- TGI [5]: 54.4 µM
- GI50 [6]: 30.4 µM
- TGI [6]: > 100 µM
- GI50 [7]: 63.6 µM
- TGI [7]: > 100 µM
- GI50 [8]: 30.6 µM
- TGI [8]: > 100 µM
- GI50 [9]: 45.5 µM
- TGI [9]: > 100 µM

Structure (SMILES): CN1CCN(c2c(F)cc(NC3=C(Cl)C(=O)c4ncccc4C3=O)cc2F)CC1
- GI50 [10]: 12.9 µM
- TGI [10]: 25.9 µM
- GI50 [1]: 16.5 µM
- TGI [1]: 33 µM
- GI50 [2]: 2.15 µM
- TGI [2]: 5.17 µM
- GI50 [3]: 1.78 µM
- TGI [3]: 3.35 µM
- GI50 [5]: 19.2 µM
- TGI [5]: 42.9 µM
- GI50 [6]: 2.92 µM
- TGI [6]: 11.5 µM
- GI50 [7]: 1.84 µM
- TGI [7]: 3.44 µM
- GI50 [8]: 8.82 µM
- TGI [8]: > 100 µM
- GI50 [9]: 1.55 µM
- TGI [9]: 3.22 µM

Structure (SMILES): CC(=O)OCC(=O)[C@@]1(O)CC[C@H]2[C@@H]3C[C@H](C)C4=CC(=O)C=C[C@]4(C)[C@@]3(F)[C@@H](O)C[C@@]21C
- TGI [1]: > 100 µM
- TGI [2]: > 100 µM
- TGI [3]: > 100 µM
- TGI [4]: > 100 µM
- TGI [5]: > 100 µM
- TGI [6]: > 100 µM
- TGI [7]: > 100 µM
- TGI [9]: > 100 µM

Structure (SMILES): COc1cc(OC)c(OC)cc1/C=C/c1nc2ccccc2s1
- TGI [1]: > 100 µM
- TGI [2]: > 100 µM
- TGI [3]: > 100 µM
- TGI [4]: > 100 µM
- TGI [5]: > 100 µM
- TGI [6]: > 100 µM
- TGI [7]: > 100 µM
- TGI [8]: > 100 µM
- TGI [9]: 56.9 µM

Structure (SMILES): C[C@H](C(=O)O)C(=O)NC(=O)N(Cc1ccccc1)N=O
- TGI [1]: > 100 µM
- TGI [2]: > 100 µM
- TGI [3]: > 100 µM
- TGI [4]: > 100 µM
- TGI [5]: > 100 µM
- TGI [6]: > 100 µM
- TGI [7]: > 100 µM
- TGI [8]: > 100 µM

Structure (SMILES): COc1ccc(Nc2cnc3cc(N)cc(N)c3n2)cc1
- GI50 [1]: 18.4 µM
- TGI [1]: 36.2 µM
- GI50 [2]: 18.8 µM
- TGI [2]: 40.5 µM
- GI50 [3]: 23.8 µM
- TGI [3]: 54.1 µM
- GI50 [4]: 4.53 µM
- TGI [4]: 25.7 µM
- GI50 [5]: 24.4 µM
- TGI [5]: 51.9 µM
- GI50 [6]: 17.6 µM
- TGI [6]: 37.7 µM
- GI50 [7]: 18.2 µM
- TGI [7]: 42.9 µM
- GI50 [8]: 14.1 µM
- TGI [8]: 29.4 µM

Structure (SMILES): c1ccc(C(c2ccccc2)c2ccccn2)cc1
- TGI [1]: > 100 µM
- TGI [2]: > 100 µM
- TGI [3]: > 100 µM
- TGI [4]: > 100 µM
- TGI [5]: > 100 µM
- TGI [6]: > 100 µM
- TGI [7]: > 100 µM
- TGI [8]: > 100 µM

Structure (SMILES): COc1ccc2c(C(=O)O)cc3ccccc3c2c1OC
- TGI [1]: 33.9 µM
- TGI [2]: 35 µM
- TGI [3]: 32.6 µM
- TGI [4]: > 100 µM
- TGI [5]: > 100 µM
- TGI [7]: 31.1 µM
- TGI [8]: 56.8 µM
- TGI [9]: 44.3 µM

Structure (SMILES): O=C1C2C3C=CC(C2C(=O)N1CO)C1C2C(=O)N(CO)C(=O)C2C31 (stereo not given)
- TGI [1]: > 100 µM
- TGI [2]: > 61.9 µM
- TGI [3]: > 59.8 µM
- TGI [4]: 46.5 µM
- TGI [5]: > 100 µM
- TGI [6]: > 100 µM
- TGI [7]: > 58.6 µM
- TGI [8]: > 75.8 µM
- TGI [9]: > 100 µM

Structure (SMILES): COc1ccc2nc(NC(=O)C(=O)CC(=O)c3ccc([N+](=O)[O-])cc3)sc2c1
- TGI [1]: > 100 µM
- TGI [3]: > 100 µM
- TGI [4]: > 100 µM
- TGI [5]: > 100 µM
- TGI [6]: > 100 µM
- TGI [7]: > 100 µM
- TGI [8]: > 100 µM
- TGI [9]: > 100 µM

Structure (SMILES): COC(=O)C1=C(C(=O)OC)C2(c3ccccc3)OC1(c1ccccc1)c1cc3ccccc3cc12
- TGI [1]: 3.97 µM
- TGI [2]: 2.71 µM
- TGI [4]: 4.19 µM
- TGI [5]: 27.1 µM
- TGI [6]: 3.78 µM
- TGI [7]: 2.7 µM
- TGI [8]: 2.96 µM
- TGI [9]: 2.44 µM
